In patent US20050281745A1, “Stable isotope based dynamic metabolic profiling of living organisms for characterization of metabolic diseases, drug testing and drug development” (priority 2002, published 2005):

System: pentose cycle, glucose activation and fatty acid synthesis pathways
Assay: stable isotope ([1,2-13C2]glucose) based dynamic metabolic profiling
Format: cell-based
Details: for cell proliferation rates / nucleic acid ribose synthesis through the non-oxidative steps of the pentose cycle: metabolic profile induced by cell transforming agents
Excerpt: The present invention comprises, for example, the use of the stable [1,2-^13C2]glucose tracer for metabolic pathway analyses in cultures of mammalian cells, bacteria, virus hosting cells, phage hosting bacteria, tissue slices, perfused organs, living animals or humans. The invention provides a dynamic and comprehensive metabolic profiling technique by using specifically labeled glucose substrate isotopes which not only turn into intermediary metabolites but also produce mass isotopomers of these metabolites which can be separated, measured and quantitated using liquid and gas chromatography separation and mass spectrometry (GC/MS), other mass spectrometric analysis or nuclear magnetic resonance (NMR) instruments.
After treatments, while incubating with the isotope labeled glucose substrate, the profiling study may begin with the separation of cell pellets, cell culture media, blood plasma/serum or body fluids. The cell culture media may then be used for lactate and glutamate analyses. Lactate is an abundant cell media component of the 3 carbon metabolite pool of the cell. It is used to determine the relative activity of pentose cycle glucose oxidation and recycling into glycolysis, as the percent of substrate flux through glycolysis, also known as the Embden-Meyerhoff-Parnas pathway. Glutamate label accumulation represents tricarboxylic acid (TCA) cycle carbon substrate flow. Nucleic acid ribose and deoxyribose are used to determine cell viability (ribose) and cell proliferation (deoxyribose).
Cell cycle progression and the frequency of cell divisions are determined by the accumulation of ^13C label into deoxyribose, while cell viability, apoptosis and necrosis are determined by the differential incorporation of ^13C into ribose and deoxyribose. The major advantage of our label system introduced herein is that we can differentiate between glucose oxidation and nonoxidative ribose/deoxyribose synthesis during nucleic acid production in disease and health as well as during drug testing. Glycogen glucose represents glycogen synthesis, which can originate from activated glucose (direct glycogen synthesis) or indirectly from pentoses after glucose oxidation in the pentose cycle. Non-essential fatty acids of the saturated and desaturated kinds indicate the rate of de novo fatty acid synthesis from glucose and the contribution of fatty acid synthase, chain elongase and desaturase to cell differentiation, hormone synthesis and drug effects.
The details of how the invention can be carried out can be better understood by reference to the figures. […] Glucose activation via hexokinase/glucokinase and the formation of fructose-1,6-bis phosphate maintain the ^13C labeled carbons in the 1st and 2nd positions. ^13C-labeled carbon positions derived from [1,2-^13C2]glucose are shown by the “13” superscript, while ^12C native-labeled carbon positions are shown by the “12” superscript. Participating enzymes are italicized in all of the figures. Thus, a single version of the invention can be carried out by creating two separate cell culture systems. The first system is a control system which includes the ^13C labeled glucose which may be [1,2-^13C2] glucose. […]

Row | Compound | cell proliferation rates | nucleic acid ribose synthesis through the non-oxidative steps of the pentose cycle | glucose activation and oxidative and non-oxidative ribose synthesis from glucose (metabolic profile of anticancer compounds, associated with effective tumor growth control)
1 | CCOP(=S)(NC(C)C)Oc1ccccc1C(=O)OC(C)C (centres unmarked) [isofenphos] | increased | intense | 
2 | Cc1ccc(NC(=O)c2ccc(CN3CCN(C)CC3)cc2)cc1Nc1nccc(-c2cccnc2)n1 [Gleevec] |  |  | inhibited
3 | transforming growth factor beta [TGF-beta] | increased | intense | 
